From article PMC7053711, “A G protein–coupled receptor mediates neuropeptide-induced oocyte maturation in the jellyfish Clytia” (PLoS Biology, 2020)
“Also recorded” adds a separate entry of the source. Peptide text beside a SMILES is read from it.

Assays:
[1] = test system: MIHR mutant (n5-23, n5-13) isolated female gonads; assay: Gonad spawning assay, MIHR mutant isolated gonads; set-up: species or system Clytia hemisphaerica; settings: for Gonads spawning (number) / Percentage of spawning gonads: 0,1uM WPRPa, MIH R K.O.
Protocol: We performed a series of oocyte maturation and spawning assays, comparing the responses of wild-type and MIHR mutant isolated gonads and oocytes to different stimuli (Fig 4).
Sexually mature MIHR mutant medusae from colonies n5-13 and n5-23 and wild-type medusae were cultured on the same day–night cycle. Individual gonads were dissected in the evening after afternoon spawning. To test the light response, one group of each was transferred to 100 μL MFSW in wells of 96-well plastic plates, covered overnight, and re-exposed to white light the following day. To test responses to MIH and cAMP, other groups of dissected gonads were cultured overnight in constant light, then transferred to 96-well plastic plates for two hours. MIH was added to wells as an equal volume of 200 nM WPRPamide (GenScript) stock in MFSW was added to give a final concentration of 100 nM. Alternatively, a stock of 20 mM bromo adenosine 3′,5′cyclic monophosphate (Br-cAMP–Fluka; Sigma Aldrich) in distilled water was added to give a final concentration of 4 mM. Gonads were washed after 5 minutes incubation in Br-cAMP. Oocyte maturation was scored after 30 minutes as germinal vesicle breakdown (GVBD), i.e., visible dissolution of the oocyte nuclear membrane upon entry into M phase, which in all cases was followed by spawning about 1 hour later.
(§1) Supplementary file pbio.3000614.s013.xlsx: S3 Data Numerical data corresponding to Fig 4A and 4C. The first tab collects all the raw data from 3 independent gonad spawning assays. Information corresponding to the Fisher exact tests is also shown. […] The means and standard deviations were used to prepare the graph in Fig 4C. Information corresponding to the Fisher exact tests is also shown. (XLSX) Click here for additional data file.

[2] = test system: fully grown oocytes isolated from MIHR mutant (n5-23) gonads; assay: Oocyte maturation assay, MIHR mutant isolated oocytes (GVBD); assay type: cell-based, Clytia hemisphaerica; settings: for Oocyte maturation (number) / Percentage of Oocytes maturing: 0,1uM WPRPa, MIH R K.O.
From the text: Fig 4 Oocyte maturation failure in MIHR mutant medusae. Oocyte maturation assays performed using isolated gonads (A, B) or isolated oocytes (C) from MIHR mutant jellyfish compared to WT. In A and C, bar heights represent mean percentages of 3 independent experiments and error bars show standard deviations. Total gonad or oocyte numbers for each treatment are indicated in gray. (A) Spawning response of isolated gonads from WT and n5-23 female medusae. Three treatments were compared as indicated above each panel: Light: light stimulation after incubation in the dark; MIH: treatment of light-maintained gonads with 100 nM WPRPamide; cAMP: treatment of light-maintained gonads with 4 mM Br-cAMP. […] Full datasets from three independent experiments are available in S3 Data. (B) Light microscope images illustrating gonads from an equivalent experiment performed with n5-13 female MIHR mutant medusae 120 minutes after the indicated treatments. Scale bar: 500 μm. […] Full datasets from 3 independent experiments are available in S3 Data. Br-cAMP, bromoadenosine 3′,5′-cyclic monophosphate; cAMP, cyclic adenosine monophosphate; KO, knockout; MIH, maturation-inducing hormone; MIHR, MIH receptor; WT, wild-type.
Fully grown oocytes were isolated manually from dissected gonads of wild-type and MIHR KO mutant jellyfish prepared as above. Maturation assays were performed in wells of 96-well plates or small plastic petri dishes lined with 2% agarose in MFSW. Spontaneous maturation occurs at a low frequency in control oocytes. To test MIH-induced maturation, 10 μL WPRPamide from 1 μM solution in MFSW was added to a final concentration of 100 nM. In some experiments, Br-cAMP from a 20 mM stock in H2O was used at a final concentration of 4 mM. GVBD was scored at 30 minutes, every 5 minutes, depending on experiments.
as §1

[3] = WPRPa, pooled n=82, Fisher exact test vs WT significant at p < .01
[4] = WPRPa, pooled n=46, Fisher exact test vs WT significant at p < .01

For `N=C(N)NCCC[C@H](NC(=O)[C@@H]1CCCN1C(=O)[C@@H](N)Cc1c[nH]c2ccccc12)C(=O)N1CCC[C@H]1C(N)=O` [WPRPa] (H-WPRP-NH2; N-terminus assumed), the “Gonads spawning (number)” value ([1]; replicate 1, total 29) was 0, the “Percentage of spawning gonads” value ([1]; replicate 1, total 29) was 0 and the “Gonads spawning (number)” value ([1]; replicate 2, total 29) was 0. For the same molecule, the “Percentage of spawning gonads” value ([1]; replicate 2, total 29) was 0, the “Gonads spawning (number)” value ([1]; replicate 3, total 24) was 0 and the “Percentage of spawning gonads” value ([1]; replicate 3, total 24) was 0. For the same molecule, the “Percentage of spawning gonads (summary)” value ([1]; WPRPa, MIHR K.O., summary of 3 replicates) was 0, the “Non-spawning gonads, MIHR KO NO” value [1, 3] was 82 and the “Spawning gonads, MIHR KO YES” value [1, 3] was 0. For the same molecule, the “oocyte maturation and spawning of MIHR mutant gonads, MIH treatment” value ([1]; isolated MIHR mutant gonads, 100 nM WPRPamide) was “MIHR mutant gonads did not respond; also recorded: No oocyte maturation or spawning was observed”, the “Oocyte maturation (number)” value ([2]; replicate 1, total 14) was 1 and the “Percentage of Oocytes maturing” value ([2]; replicate 1, total 14) was 7.14. For the same molecule, the “Oocyte maturation (number)” value ([2]; replicate 2, total 11) was 0, the “Percentage of Oocytes maturing” value ([2]; replicate 2, total 11) was 0.00 and the “Oocyte maturation (number)” value ([2]; replicate 3, total 21.00) was 2. The “Percentage of Oocytes maturing” value ([2]; replicate 3, total 21.00) was 9.52, the “Maturing oocytes, MIHR KO YES” value [2, 4] was 3 and the “Non-maturing oocytes, MIHR KO NO” value [2, 4] was 43.
